Columns and labels:
[1] = target: full-length RORγt in Jurkat cells (Homo sapiens (Human), UniProt P51449); assay: RORγt 5×RORE Assay in Jurkat Cells (Assay 2); type: cell-based; conditions: 5×RORE Nanoluc luciferase reporter
Procedure: RORγt 5×RORE Assay in Jurkat Cells (Assay 2)
Compounds described herein were tested for RORγ inverse agonist activity in a cell-based, transcriptional activity assay. Secreted Nanoluc® luciferase was used as a reporter for transcriptional activity of the full-length RORγt in Jurkat cells (ATCC, Cat. #TIB-152). […] (Promega, Cat. #N1021) using KpnI and HindIII restriction sites. […] After 5-6 hrs of incubation at 37° C./5% CO2, the cells were collected, resuspended in phenol-red free RPMI media containing 10% (v/v) delipidated FBS (Hyclone, Cat. #SH30855.03) and dispensed into 96-well clear bottom tissue culture plates (CoStar, Cat. #3603), at 80,000 cells per well. Tested compounds were added to the cells in the same media (final concentration of DMSO was 0.1% (v/v)), and the plates were incubated at 37° C./5% CO2 for 16-18 hrs. Luciferase activity in the conditioned supernatants was determined with NanoGlo® assay reagents (Promega, Cat. #N1130).

[2] = target: recombinant RORγ Ligand Binding Domain (LBD) protein (Homo sapiens (Human), UniProt P51449); assay: Radio-Ligand RORγ Binding Assay (Assay 1); conditions: competition with 25-hydroxy [26,27-3H]-cholesterol, SPA
Procedure: Radio-Ligand RORγ Binding Assay (Assay 1)
Compounds described herein were tested for ability to bind to RORγ in a cell-free competition assay with commercially available radio-ligand (RL), 25-hydroxy [26,27-^3H]-cholesterol (PerkinElmer, Cat. #NET674250UC), for a ligand binding site on a recombinant RORγ Ligand Binding Domain (LBD) protein expressed as a 6×His-Glutathione-S-Transferase (GST) fusion. The assay was performed in 96-well SPA plates (PerkinElmer, Cat. #1450-401) in 50 mM HEPES buffer, pH 7.4, containing 150 mM NaCl, 5 mM MgCl2, 10% (v/v) glycerol, 2 mM CHAPS, 0.5 mM β-octylglucopyranoside and 5 mM DTT. Tested compounds were dissolved in DMSO, and semi-log (3.162×) serial dilutions of the compounds were prepared in the same solvent. Two μL of the DMSO solutions were mixed with 28 μL of 8.6 nM 25-hydroxy [26,27-^3H]-cholesterol and 50 μL of 24 nM RORγ LBD. The plate was shaken at 700 rpm for 20 min and incubated for 10 min at rt, after which 40 μL of poly-Lys YSi SPA beads (PerkinElmer, Cat. #RPNQ0010) were added to achieve […] of the beads per well. The plate was incubated on an orbital shaker for 20 min and then for 10 min without agitation at rt. SPA signal for tritium beta radiation was registered on PerkinElmer Microbeta plate reader. […] The percent inhibition vs. concentration data were fit into a four-parameter model, and IC50 values were calculated from the fit as the concentrations corresponding to the inflection points on the dose-response curves. Inhibitory constants (Ki) were calculated using the following equation, where [RL] is the concentration in the assay and KD is a dissociation constant of 25-hydroxy [26,27-^3H]-cholesterol: […]

recombinant RORγ Ligand Binding Domain (LBD) protein, sequence (P51449 269-508): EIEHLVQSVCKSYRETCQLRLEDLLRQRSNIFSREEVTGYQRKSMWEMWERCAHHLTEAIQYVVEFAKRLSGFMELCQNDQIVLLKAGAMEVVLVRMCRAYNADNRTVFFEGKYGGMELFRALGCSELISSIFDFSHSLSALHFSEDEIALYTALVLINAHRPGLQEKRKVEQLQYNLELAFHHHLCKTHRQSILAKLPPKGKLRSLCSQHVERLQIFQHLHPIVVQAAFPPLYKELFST
full-length RORγt in Jurkat cells, sequence (P51449 other isoform, or with tags, fused parts or gaps): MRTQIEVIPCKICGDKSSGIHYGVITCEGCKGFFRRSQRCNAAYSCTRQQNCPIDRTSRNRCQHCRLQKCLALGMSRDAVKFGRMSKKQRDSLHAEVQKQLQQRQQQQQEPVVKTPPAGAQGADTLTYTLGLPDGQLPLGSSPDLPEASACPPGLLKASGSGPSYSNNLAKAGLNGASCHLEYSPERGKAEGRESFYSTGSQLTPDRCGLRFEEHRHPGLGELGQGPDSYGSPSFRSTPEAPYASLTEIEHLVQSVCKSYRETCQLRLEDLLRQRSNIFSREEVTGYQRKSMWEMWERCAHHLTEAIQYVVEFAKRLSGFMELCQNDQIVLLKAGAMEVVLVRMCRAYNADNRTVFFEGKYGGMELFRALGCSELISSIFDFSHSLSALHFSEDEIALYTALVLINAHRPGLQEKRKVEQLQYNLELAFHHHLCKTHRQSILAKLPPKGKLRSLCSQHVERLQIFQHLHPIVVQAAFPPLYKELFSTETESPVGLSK

Compound	IC50 [1] [nM]	Ki [2] [nM]
CCS(=O)(=O)c1ccc([C@@H](CO)NC(=O)c2ccc3c(c2)nc(C(F)(F)F)n3Cc2cccc3c2OC(F)(F)O3)cc1 [I-11.2, (S)-1-((2,2-difluorobenzo[d][1,3]dioxol-4-yl)methyl)-N-(1-(4-(ethylsulfonyl)phenyl)-2-hydroxyethyl)-2-(trifluoromethyl)-1H-benzo[d]imidazole-5-carboxamide]	< 100	< 100
CCc1nc2cc(C(=O)N[C@@H](CO)c3ccc(S(=O)(=O)CC)cc3)ccc2n1Cc1cccc2c1OC(F)(F)O2 [I-16, (R)-1-((2,2-difluorobenzo[d][1,3]dioxol-4-yl)methyl)-2-ethyl-N-(1-(4-(ethylsulfonyl)phenyl)-2-hydroxyethyl)-1H-benzo[d]imidazole-5-carboxamide]	< 100	< 100
CCS(=O)(=O)c1ccc([C@H](CO)NC(=O)c2ccc3c(c2)nc(C(F)F)n3Cc2cccc3c2OC(F)(F)O3)cc1 [I-17, (R)-1-((2,2-difluorobenzo[d][1,3]dioxol-4-yl)methyl)-2-(difluoromethyl)-N-(1-(4-(ethylsulfonyl)phenyl)-2-hydroxyethyl)-1H-benzo[d]imidazole-5-carboxamide]	< 100	< 100
CCS(=O)(=O)c1ccc([C@H](CO)NC(=O)c2ccc3c(c2)nc(C2(F)CC2)n3Cc2cccc3c2OC(F)(F)O3)cc1 [I-18, (R)-1-((2,2-difluorobenzo[d][1,3]dioxol-4-yl)methyl)-N-(1-(4-(ethylsulfonyl)phenyl)-2-hydroxyethyl)-2-(1-fluorocyclopropyl)-1H-benzo[d]imidazole-5-carboxamide]	< 100	< 100
CS(=O)(=O)c1ccc([C@H](CO)NC(=O)c2ccc3c(c2)nc(C(F)(F)F)n3Cc2cccc3c2OC(F)(F)O3)cc1 [I-20.1, (R)-1-((2,2-difluorobenzo[d][1,3]dioxol-4-yl)methyl)-N-(2-hydroxy-1-(4-(methylsulfonyl)phenyl)ethyl)-2-(trifluoromethyl)-1H-benzo[d]imidazole-5-carboxamide]	< 100	< 100
CS(=O)(=O)c1ccc([C@@H](CO)NC(=O)c2ccc3c(c2)nc(C(F)(F)F)n3Cc2cccc3c2OC(F)(F)O3)cc1 [I-20.2, (S)-1-((2,2-difluorobenzo[d][1,3]dioxol-4-yl)methyl)-N-(2-hydroxy-1-(4-(methylsulfonyl)phenyl)ethyl)-2-(trifluoromethyl)-1H-benzo[d]imidazole-5-carboxamide]	< 100	< 100
CS(=O)(=O)c1ccc([C@H](CO)NC(=O)c2ccc3c(c2)nc(C2CC2)n3Cc2cccc3c2OC(F)(F)O3)cc1 [I-21, (R)-2-cyclopropyl-1-((2,2-difluorobenzo[d][1,3]dioxol-4-yl)methyl)-N-(2-hydroxy-1-(4-(methylsulfonyl)phenyl)ethyl)-1H-benzo[d]imidazole-5-carboxamide]	< 100	< 100
CS(=O)(=O)c1ccc([C@H](CO)NC(=O)c2ccc3c(c2)nc(C2CCC2)n3Cc2cccc3c2OC(F)(F)O3)cc1 [I-22, (R)-2-cyclobutyl-1-((2,2-difluorobenzo[d][1,3]dioxol-4-yl)methyl)-N-(2-hydroxy-1-(4-(methylsulfonyl)phenyl)ethyl)-1H-benzo[d]imidazole-5-carboxamide]	< 100	< 100
CS(=O)(=O)c1ccc([C@H](CO)NC(=O)c2ccc3c(c2)nc(C(F)F)n3Cc2cccc3c2OC(F)(F)O3)cc1 [I-23.1, (R)-1-((2,2-difluorobenzo[d][1,3]dioxol-4-yl)methyl)-2-(difluoromethyl)-N-(2-hydroxy-1-(4-(methylsulfonyl)phenyl)ethyl)-1H-benzo[d]imidazole-5-carboxamide]	< 100	< 100
CS(=O)(=O)c1ccc([C@@H](CO)NC(=O)c2ccc3c(c2)nc(C(F)F)n3Cc2cccc3c2OC(F)(F)O3)cc1 [I-23.2, (S)-1-((2,2-difluorobenzo[d][1,3]dioxol-4-yl)methyl)-2-(difluoromethyl)-N-(2-hydroxy-1-(4-(methylsulfonyl)phenyl)ethyl)-1H-benzo[d]imidazole-5-carboxamide]	100 to 1000	< 100
CS(=O)(=O)c1ccc([C@H](CO)NC(=O)c2ccc3c(c2)nc(C2(F)CC2)n3Cc2cccc3c2OC(F)(F)O3)cc1 [I-24, (R)-1-((2,2-difluorobenzo[d][1,3]dioxol-4-yl)methyl)-2-(1-fluorocyclopropyl)-N-(2-hydroxy-1-(4-(methylsulfonyl)phenyl)ethyl)-1H-benzo[d]imidazole-5-carboxamide]	< 100	< 100
CCS(=O)(=O)c1ccc(CNC(=O)c2ccc3c(c2)nc(C(F)(F)F)n3Cc2cccc3c2OC(F)(F)O3)cc1 [I-25, 1-((2,2-difluorobenzo[d][1,3]dioxol-4-yl)methyl)-N-(4-(ethylsulfonyl)benzyl)-2-(trifluoromethyl)-1H-benzo[d]imidazole-5-carboxamide]	< 100	< 100
CCS(=O)(=O)c1ccc(CNC(=O)c2ccc3c(c2)nc(C2CC2)n3Cc2cccc3c2OC(F)(F)O3)cc1 [I-26, 2-cyclopropyl-1-((2,2-difluorobenzo[d][1,3]dioxol-4-yl)methyl)-N-(4-(ethylsulfonyl)benzyl)-1H-benzo[d]imidazole-5-carboxamide]	< 100	< 100
CCS(=O)(=O)c1ccc(CNC(=O)c2ccc3c(c2)nc(C2(F)CC2)n3Cc2cccc3c2OC(F)(F)O3)cc1 [I-27, 1-((2,2-difluorobenzo[d][1,3]dioxol-4-yl)methyl)-N-(4-(ethylsulfonyl)benzyl)-2-(1-fluorocyclopropyl)-1H-benzo[d]imidazole-5-carboxamide]	< 100	< 100
CCS(=O)(=O)c1ccc(CNC(=O)c2ccc3c(c2)nc(COC)n3Cc2cccc3c2OC(F)(F)O3)cc1 [I-28, 1-((2,2-difluorobenzo[d][1,3]dioxol-4-yl)methyl)-N-(4-(ethylsulfonyl)benzyl)-2-(methoxymethyl)-1H-benzo[d]imidazole-5-carboxamide]	< 100	< 100
CCc1nc2cc(C(=O)NCc3ccc(S(=O)(=O)CC)cc3)ccc2n1Cc1cccc2c1OC(F)(F)O2 [I-29, 1-((2,2-difluorobenzo[d][1,3]dioxol-4-yl)methyl)-2-ethyl-N-(4-(ethylsulfonyl)benzyl)-1H-benzo[d]imidazole-5-carboxamide]	< 100	< 100
CCS(=O)(=O)c1ccc(CNC(=O)c2ccc3c(c2)nc(C(C)(C)C)n3Cc2cccc3c2OC(F)(F)O3)cc1 [I-30, 2-(tert-butyl)-1-((2,2-difluorobenzo[d][1,3]dioxol-4-yl)methyl)-N-(4-(ethylsulfonyl)benzyl)-1H-benzo[d]imidazole-5-carboxamide]	< 100	< 100
CCS(=O)(=O)c1ccc(CNC(=O)c2ccc3c(c2)nc(C(C)C)n3Cc2cccc3c2OC(F)(F)O3)cc1 [I-31, 1-((2,2-difluorobenzo[d][1,3]dioxol-4-yl)methyl)-N-(4-(ethylsulfonyl)benzyl)-2-isopropyl-1H-benzo[d]imidazole-5-carboxamide]	< 100	< 100
CCS(=O)(=O)c1ccc(CNC(=O)c2ccc3c(c2)nc(C)n3Cc2cccc3c2OC(F)(F)O3)cc1 [I-32, 1-((2,2-difluorobenzo[d][1,3]dioxol-4-yl)methyl)-N-(4-(ethylsulfonyl)benzyl)-2-methyl-1H-benzo[d]imidazole-5-carboxamide]	> 1000	< 100
CCS(=O)(=O)c1ccc(CNC(=O)c2ccc3c(c2)nc(CC(C)C)n3Cc2cccc3c2OC(F)(F)O3)cc1 [I-33, 1-((2,2-difluorobenzo[d][1,3]dioxol-4-yl)methyl)-N-(4-(ethylsulfonyl)benzyl)-2-isobutyl-1H-benzo[d]imidazole-5-carboxamide]	< 100	< 100
CS(=O)(=O)c1ccc(CNC(=O)c2ccc3c(c2)nc(C2CC2)n3Cc2cccc3c2OC(F)(F)O3)cc1 [I-34, 2-cyclopropyl-1-((2,2-difluorobenzo[d][1,3]dioxol-4-yl)methyl)-N-(4-(methylsulfonyl)benzyl)-1H-benzo[d]imidazole-5-carboxamide]	< 100	< 100

From patent US10829481B2, “Benzimidazole derivatives as modulators of ROR-gamma” (Vitae Pharmaceuticals, LLC, priority 2016, dated 2020)
